Here are results for 2 compounds from patent US6362167B1, “Method of blocking free radical processes which result in mediated pathology without deleterious pro-oxidant side reactions” (Natreon Inc., priority 1999, dated 2002).

Values after ≈ are worked out from the molar mass of the structure shown.

Test [1] is described as follows: DPPH radical scavenging (antioxidant activity). Conditions: DPPH 100 μM in absolute ethyl alcohol, 20 minutes, absorbance 570 nm; mean ± SEM (n = 10 to 12). In kind it is biochemical. The protocol: After 20 minutes, the absorbance (optical density) of the mixture was measured at a wavelength of 570 nm and compared to that of the control sample. The degree of scavenging of the DPPH radical by each test sample was calculated by comparing the absorbance of the test sample and the diluent control reaction mixture. The results are shown in Table 2 below, a lower IC value indicating a better antioxidant effect on the DPPH radical.
(In general: DPPH is a stable violet radical that fades when it is reduced.)

A short description of test [2]: Polymerization of methylmethacrylate (MMA) to polymethylmethacrylate (PMMA) by Fenton's reagent. The following applies: for Effect on polymerization of MMA→PMMA: low concentrations of ascorbic acid (1.0 mg in b63). Here is the method:
Thus, the pro-oxidant effect of a low concentration of AA could be systemically quite dangerous due to distinct involvement of OH radicals. […] N2 was passed through the mixture for 30 min. followed by H2O2. The onset of polymerization (the induction period in minutes) was noted. Polymerization was completed in about 24 hours at 35±2° C. The resulting precipitate was collected, washed and dried at 50° C. until a constant weight was obtained (See Table 3).

Another test deals with PBR 322 plasmid DNA. As to the kind of experiment: Prevention of DNA strand scission by hydroxyl radical from Cu(en)2-hydrogen peroxide. The format is biochemical. Here is the method: The DNA strand scission was investigated by a method published by T. Ozawa, et al [Biochem. Mol. Biol. Int. 31, 455-46, 1993]. The method consists of addition of hydrogen peroxide (30%, final concentration 25 mM) to a mixture of Cu(en)2 (final concentration 0.25 mM) and 0.5 mcg of PBR 322 plasmid DNA solution (Takara Co., Japan). The hydroxyl radical, generated from Cu(en)2-hydrogen peroxide reaction, caused DNA strand scission.

The mark [3] stands for this setting: 3 g sample added (so in the source).
[4] abbreviates: DNA + OH radical + test material.

On to `O=C1O[C@H]([C@@H](O)CO)C(O)=C1O` [AA, Ascorbic acid], for which the “IC50 (DPPH radical scavenging)” value in test [1] worked out at 18.41 ± 3.88 mg/L (≈ 105 µM). Further, the “% Conversion of MMA → PMMA” value in test [2] (1 mg sample added) is reported as 78.7 ↑ %; in test [2] (2 mg sample added), 69.8 ↑ %; in test [2] (4 mg sample added), 44.0%; in test [2] (5 mg sample added), 23.1%; in test [2] (10 mg sample added) it was 8.4%; in test [2] (setting [3]) it was 68.2 ↑ %. In addition, the “Induction Time” value in test [2] (1 mg sample added), in test [2] (2 mg sample added), in test [2] (4 mg sample added), in test [2] (5 mg sample added), in test [2] (10 mg sample added) and in test [2] (setting [3]) was 0 min in each case. Also, the “Yield of PMMA” value was 772 mg in test [2] (1 mg sample added); 692 mg in test [2] (2 mg sample added); 432 mg in test [2] (4 mg sample added); 227 mg in test [2] (5 mg sample added); 83 mg in test [2] (10 mg sample added); 670 mg in test [2] (setting [3]). In addition, the “Effect on polymerization of MMA→PMMA” value was “significant augmentation of polymerization” in test [2] and “augmented polymerization” in test [2] (listed as ascorbic acid). The “Linear form of DNA (LIN, Produced after breakage)” value with PBR 322 plasmid DNA (setting [4]) is listed as 60%. Further, in the test with PBR 322 plasmid DNA (setting [4]), the “Open circular form Of DNA (OC)” value is on record as 40%. Moreover, the “Effect on DNA strand-scission by hydroxyl radicals compared to the control value” with PBR 322 plasmid DNA (physiological pH, Cu(en)2 and hydrogen peroxide) is reported as “accelerated”.
With `CC(=O)Oc1c(C)c(C)c2c(c1C)CCC(C)(CCC[C@H](C)CCC[C@H](C)CCCC(C)C)O2` (stereo partly drawn) [α-Tocopheryl acetate (TA), α-Tocopheryl acetate], in test [1], the “IC50 (DPPH radical scavenging)” value amounted to 50.55 ± 7.03 mg/L.
